Assay results published in patent US8124793B2, “Derivatives of ethylene methanedisulfonate as cancer chemotherapeutic agents” (priority 2007, dated 2012).

What was measured:
Format in all cases: cell-based
NCI-H522 = assay: NCI screen, growth of human tumor cells: Non-Small Cell Lung NCI-H522; conditions: NCI-H522, 10^−4 molar
Method in brief: (§1)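 At least 60 data points describe each compound tested by NCI. Cancer type, molar concentration in the screen and percent growth make up the recorded data.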

SN12C = assay: NCI screen, growth of human tumor cells: Renal Cancer SN12C; conditions: SN12C (Renal Cancer), 10^−4 molar
Method in brief: as §1

NCI-H322M = assay: NCI screen, growth of human tumor cells: Non-Small Cell Lung NCI-H322M; conditions: NCI-H322M (Non-Small Cell Lung), 10^−4 molar
Method in brief: as §1

SNB-19 = assay: NCI screen, growth of human tumor cells: CNS Cancer SNB-19; conditions: SNB-19 (CNS Cancer), 10^−4 molar
Method in brief: as §1

HCC-2998 = assay: NCI screen, growth of human tumor cells: HCC-2998 (listed under Non-Small Cell Lung); conditions: HCC-2998, 10^−4 molar
Method in brief: as §1

MDA-MB-231/ATCC = assay: NCI screen, growth of human tumor cells: Breast Cancer MDA-MB-231/ATCC; conditions: MDA-MB-231/ATCC (Breast Cancer), 10^−4 molar
Method in brief: as §1

IGROVI = assay: NCI screen, growth of human tumor cells: Ovarian Cancer IGROVI; conditions: IGROVI (Ovarian Cancer), 10^−4 molar
Method in brief: as §1

MDA-N = assay: NCI screen, growth of human tumor cells: Breast Cancer MDA-N; conditions: 10^−4 molar
Method: (§2) In the NCI screening process, each compound was tested and described by a minimum of 60 data points. The test data include, but are not limited to the type of cancer, the molar concentration used in the screen, and the percent growth of the cancer. In some cases, NMR and elemental analysis were used for structural assignment.

SK-MEL-5 = assay: NCI screen, growth of human tumor cells: Melanoma SK-MEL-5; conditions: SK-MEL-5 (Melanoma), 10^−4 molar
Method in brief: as §1

DU-145 = assay: NCI screen, growth of human tumor cells: Prostate Cancer DU-145; conditions: DU-145 (Prostate Cancer), 10^−4 molar
Method in brief: as §1

RXF-393 = assay: NCI screen, growth of human tumor cells: Renal Cancer RXF-393; conditions: RXF-393 (Renal Cancer), 10^−4 molar
Method in brief: as §1

MCF 7 = assay: NCI screen, growth of human tumor cells: Breast Cancer MCF 7; conditions: MCF 7 (Breast Cancer), 10^−4 molar
Method in brief: as §1

OVCAR-8 = assay: NCI screen, growth of human tumor cells: Ovarian Cancer OVCAR-8; conditions: OVCAR-8 (Ovarian Cancer), 10^−4 molar
Method in brief: as §1

HS 578T = assay: NCI screen, growth of human tumor cells: Breast Cancer HS 578T; conditions: HS 578T (Breast Cancer), 10^−4 molar
Method in brief: as §1

HCT-116 = assay: NCI screen, growth of human tumor cells: Colon Cancer HCT-116; conditions: HCT-116 (Colon Cancer), 10^−4 molar
Method in brief: as §1

EKVX = assay: NCI screen, growth of human tumor cells: Non-Small Cell Lung EKVX; conditions: EKVX, 10^−4 molar
Method in brief: as §1

RPMI-8226 = assay: NCI screen, growth of human tumor cells: Leukemia RPMI-8226; conditions: RPMI-8226 (Leukemia), 10^−4 molar
Method in brief: as §1

BT-549 = assay: NCI screen, growth of human tumor cells: Breast Cancer BT-549; conditions: BT-549 (Breast Cancer), 10^−4 molar
Method in brief: as §1

human cancer cells = assay: NCI screen summary over the cancers tested (negative growth of human cancer cells); conditions: 10^−4 M conc.; cancers with negative growth / cancers tested
Method: as §2
The derivatives in the tables are grouped using the same category as in the tables 1-6.

M14 = assay: NCI screen, growth of human tumor cells: Melanoma M14; conditions: M14 (Melanoma), 10^−4 molar
Method in brief: as §1

SK-MEL-28 = assay: NCI screen, growth of human tumor cells: Melanoma SK-MEL-28; conditions: SK-MEL-28 (Melanoma), 10^−4 molar
Method in brief: as §1

LOXIMVI = assay: NCI screen, growth of human tumor cells: Melanoma LOXIMVI; conditions: LOXIMVI (Melanoma), 10^−4 molar
Method in brief: as §1

MOLT-4 = assay: NCI screen, growth of human tumor cells: Leukemia MOLT-4; conditions: MOLT-4 (Leukemia), 10^−4 molar
Method in brief: as §1

U-251 = assay: NCI screen, growth of human tumor cells: CNS Cancer U-251; conditions: U-251 (CNS Cancer), 10^−4 molar
Method in brief: as §1

UACC-62 = assay: NCI screen, growth of human tumor cells: Melanoma UACC-62; conditions: UACC-62 (Melanoma), 10^−4 molar
Method in brief: as §1

OVCAR-4 = assay: NCI screen, growth of human tumor cells: Ovarian Cancer OVCAR-4; conditions: OVCAR-4, 10^−4 molar
Method in brief: as §1

NCI-H226 = assay: NCI screen, growth of human tumor cells: Non-Small Cell Lung NCI-H226; conditions: NCI-H226 (Non-Small Cell Lung), 10^−4 molar
Method in brief: as §1

HOP-62 = assay: NCI screen, growth of human tumor cells: Non-Small Cell Lung HOP-62; conditions: HOP-62 (Non-Small Cell Lung), 10^−4 molar
Method in brief: as §1

NCI-H23 = assay: NCI screen, growth of human tumor cells: Non-Small Cell Lung NCI-H23; conditions: NCI-H23, 10^−4 molar
Method in brief: as §1

SF-539 = assay: NCI screen, growth of human tumor cells: CNS Cancer SF-539; conditions: SF-539 (CNS Cancer), 10^−4 molar
Method in brief: as §1

786-0 = assay: NCI screen, growth of human tumor cells: Renal Cancer 786-0; conditions: 786-0 (Renal Cancer), 10^−4 molar
Method in brief: as §1

NCI-H460 = assay: NCI screen, growth of human tumor cells: Non-Small Cell Lung NCI-H460; conditions: NCI-H460 (Non-Small Cell Lung), 10^−4 molar
Method in brief: as §1

CAKI-1 = assay: NCI screen, growth of human tumor cells: Renal Cancer CAKI-1; conditions: CAKI-1 (Renal Cancer), 10^−4 molar
Method in brief: as §1

UACC-257 = assay: NCI screen, growth of human tumor cells: Melanoma UACC-257; conditions: UACC-257 (Melanoma), 10^−4 molar
Method in brief: as §1

OVCAR-5 = assay: NCI screen, growth of human tumor cells: Ovarian Cancer OVCAR-5; conditions: OVCAR-5 (Ovarian Cancer), 10^−4 molar
Method in brief: as §1

SW620 = assay: NCI screen, growth of human tumor cells: Colon Cancer SW620; conditions: SW620 (Colon Cancer), 10^−4 molar
Method: as §2

SF-268 = assay: NCI screen, growth of human tumor cells: CNS Cancer SF-268; conditions: SF-268 (CNS Cancer), 10^−4 molar
Method in brief: as §1

MCF7/ADR-RES = assay: NCI screen, growth of human tumor cells: Breast Cancer MCF7/ADR-RES; conditions: MCF7/ADR-RES (Breast Cancer), 10^−4 molar
Method in brief: as §1

MDA-MB-435 = assay: NCI screen, growth of human tumor cells: Breast Cancer MDA-MB-435; conditions: MDA-MB-435 (Breast Cancer), 10^−4 molar
Method in brief: as §1

HCT-15 = assay: NCI screen, growth of human tumor cells: Colon Cancer HCT-15; conditions: HCT-15 (Colon Cancer), 10^−4 molar
Method in brief: as §1

ACHN = assay: NCI screen, growth of human tumor cells: Renal Cancer ACHN; conditions: ACHN (Renal Cancer), 10^−4 molar
Method in brief: as §1

OVCAR-3 = assay: NCI screen, growth of human tumor cells: Ovarian Cancer OVCAR-3; conditions: OVCAR-3 (Ovarian Cancer), 10^−4 molar
Method in brief: as §1

HT29 = assay: NCI screen, growth of human tumor cells: Colon Cancer HT29; conditions: HT29 (Colon Cancer), 10^−4 molar
Method in brief: as §1

CCOCC1(COCC)S(=O)(=O)OCCOS1(=O)=O [NSC 698120]
% Growth (NCI-H522): −83% | percent of growth of human tumor cells (SN12C): 24% | percent of growth of human tumor cells (NCI-H322M): 20% | percent of growth of human tumor cells (SNB-19): 14% | % Growth (HCC-2998): −92% | percent of growth of human tumor cells (MDA-MB-231/ATCC): 18% | percent of growth of human tumor cells (IGROVI): −28% | percent of growth of human tumor cells (MDA-N): 3% | percent of growth of human tumor cells (SK-MEL-5): 25% | percent of growth of human tumor cells (DU-145): 24% | percent of growth of human tumor cells (RXF-393): −36% | percent of growth of human tumor cells (MCF 7): 27% | percent of growth of human tumor cells (OVCAR-8): −43% | percent of growth of human tumor cells (HS 578T): 15% | percent of growth of human tumor cells (HCT-116): −6% | % Growth (EKVX): −99% | percent of growth of human tumor cells (RPMI-8226): 10% | percent of growth of human tumor cells (BT-549): −4% | Percentage of cancers showing negative growth cancers tested (human cancer cells): 10^−4 M conc. = 22/42 = 52% | percent of growth of human tumor cells (M14): −36% | percent of growth of human tumor cells (SK-MEL-28): 12% | percent of growth of human tumor cells (LOXIMVI): −25% | percent of growth of human tumor cells (MOLT-4): 23% | percent of growth of human tumor cells (U-251): −47% | percent of growth of human tumor cells (UACC-62): −36% | % Growth (OVCAR-4): −88% | percent of growth of human tumor cells (NCI-H226): 0% | percent of growth of human tumor cells (HOP-62): 23% | % Growth (NCI-H23): −72% | percent of growth of human tumor cells (SF-539): 20% | percent of growth of human tumor cells (786-0): 15% | percent of growth of human tumor cells (NCI-H460): −38% | percent of growth of human tumor cells (CAKI-1): 7% | percent of growth of human tumor cells (UACC-257): −14% | percent of growth of human tumor cells (OVCAR-5): −28% | percent of growth of human tumor cells (SW620): −3% | percent of growth of human tumor cells (SF-268): 21% | percent of growth of human tumor cells (MCF7/ADR-RES): −26% | percent of growth of human tumor cells (MDA-MB-435): 1% | percent of growth of human tumor cells (HCT-15): −27% | percent of growth of human tumor cells (ACHN): 18% | percent of growth of human tumor cells (OVCAR-3): −13% | percent of growth of human tumor cells (HT29): −3%
